Experimental data taken from paper PMC8312464, “Inhibition of heat shock proteins increases autophagosome formation, and reduces the expression of APP, Tau, SOD1 G93A and TDP-43” (Aging (Albany NY), 2021).

How the values were obtained:
[1] = molecular target: T1, HSP90; test: ATPase activity (ATP-lite luminescence) of immunoprecipitated FLAG-HSP90 on Sepharose beads; assay type: biochemical
T1 construct: FLAG-tagged HSP90 expressed in GBM12 cells, immuno-precipitated by its tag
From the text: ATPase activity (ATP-lite luminescence) of immunoprecipitated FLAG-HSP90 on Sepharose beads on HSP90 | In a dose-dependent fashion AR12 inhibited the ATPase activities of HSP90, HSP70 and GRP78

[2] = molecular target: T2, GRP78 (Homo sapiens, UniProt P11021); test: ATPase activity (ATP-lite luminescence) of immunoprecipitated GRP78 on Sepharose beads; assay type: biochemical
T2 construct: gene HSPA5; GRP78 expressed from a plasmid in GBM12 cells, immuno-precipitated with an antibody to the COOH terminal portion
T2 sequence (P11021 19-654): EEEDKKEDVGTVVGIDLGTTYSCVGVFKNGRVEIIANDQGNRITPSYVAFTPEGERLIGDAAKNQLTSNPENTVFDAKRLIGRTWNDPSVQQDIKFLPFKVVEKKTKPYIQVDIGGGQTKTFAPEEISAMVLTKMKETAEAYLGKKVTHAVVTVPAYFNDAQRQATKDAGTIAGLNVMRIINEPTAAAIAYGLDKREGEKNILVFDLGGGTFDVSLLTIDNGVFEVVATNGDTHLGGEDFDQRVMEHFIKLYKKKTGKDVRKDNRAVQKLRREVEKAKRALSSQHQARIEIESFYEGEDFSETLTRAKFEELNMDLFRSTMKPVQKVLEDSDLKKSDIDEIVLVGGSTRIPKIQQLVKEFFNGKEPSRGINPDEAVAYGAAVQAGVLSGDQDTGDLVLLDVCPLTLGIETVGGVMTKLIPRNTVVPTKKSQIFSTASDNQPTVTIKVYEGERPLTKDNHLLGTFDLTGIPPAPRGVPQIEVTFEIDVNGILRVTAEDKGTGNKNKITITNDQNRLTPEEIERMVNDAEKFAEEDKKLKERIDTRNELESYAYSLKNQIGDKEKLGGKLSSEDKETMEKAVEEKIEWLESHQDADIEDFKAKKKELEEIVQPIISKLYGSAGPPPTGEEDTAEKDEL

## NCC(=O)Nc1ccc(-n2nc(C(F)(F)F)cc2-c2ccc3c(ccc4ccccc43)c2)cc1 [AR12]
[1]
  IC50: ~300 nM
[2]
  IC50: ~80 nM
